Marks after values point to notes of the source that are not given here.
Assays:
[1] = test system: Colo-205 human colon xenograft; assay: Antitumor activity against human colon xenograft Colo-205
Description: A study was also carried out to explore the potential of an intermittent dosing strategy.

[2] = test system: BxPc-3 pancreatic xenograft; assay: Antitumor activity in BxPc-3 tumor model; assay type: in vivo, mice; conditions: oral 25 mg/kg once a day for 14 days
[3] = test system: RXF-393 renal cell carcinoma; assay: Antitumor activity in RXF-393 tumor model; assay type: in vivo, mice; conditions: oral 25 mg/kg once a day, euthanized on day 8 of dosing
[4] = Plasma concentrations associated with antitumor efficacy in mice; assay type: in vivo; conditions: mouse, oral, C26 and ZR-75-1 tumor models in mice
[5] = Metabolites of [14C] Compound 1 in liver microsomes; assay type: in vitro ADME, monkey; conditions: [C-14] Compound 1 10 μM, 90 mins
Description: (§1) Incubations were performed in hepatocytes for 3 hours and liver microsomes for 1.5 hours and were stopped with the addition of methanol. HPLC, in conjuction with ionspray 3D iontrap mass spectrometry, and simultaneous radioactive monitoring were used to detect and identify the resulting metabolites.
(§2) This acid cleavage product is further metabolized to form hydroxylated (M 11, 16% in rat) and hydroxylated, defluorinated products (M 17, 19% in rat).

[6] = as above; assay type: in vitro ADME, rat; conditions: [C-14] Compound 1 10 μM, 90 mins
Description: as §1, §2

clinical = conditions: human, plasma, oral
Description: Pharmacokinetic data are presented for the first 38 subjects.
Blood samples were collected from patients into a purple-top potassium EDTA Vacutainer tube. Following mixing with gentle inversion (8-10 times), tubes were centrifuged within 20 minutes at 1000×g for 15 minutes, to harvest plasma. Plasma samples were stored at −20° C. until analysis.
The following results are based on preliminary pharmacokinetic parameters from the 38 subjects, estimated using nominal collection times and quality-controlled, non quality-assured bioanalytical data. Pharmacokinetic parameters were determined by the non-compartmental method using WINNONLIN Professional Edition (Version 4.1). […] The maximum observed concentration (Cmax) was obtained by inspection of the concentration data. The time to reach the Cmax was the first time at which Cmax is observed and obtained by inspection of the data. The pre-dose concentration (Ctrough) was obtained by inspection of the concentration data.

[7] = Colo-205, D19, 22, 25, 28, 31, 34, 37, 40, 43, 46, 18.8 mg/kg
[8] = Colo-205, D19, 22, 25, 28, 31, 34, 37, 40, 43, 46, 37.5 mg/kg
[9] = Colo-205, D19, 22, 25, 28, 31, 34, 37, 40, 43, 46, 75 mg/kg
[10] = Colo-205, D19, 22, 25, 28, 31, 34, 37, 40, 43, 46, 150 mg/kg
[11] = Colo-205, D19, 26, 33, 40, 47, 37.5 mg/kg
[12] = Colo-205, D19, 26, 33, 40, 47, 75 mg/kg
[13] = Colo-205, D19, 26, 33, 40, 47, 150 mg/kg
[14] = Colo-205, D19, 26, 33, 40, 47, 300 mg/kg (toxic)
[15] = Colo-205, D19-23, 26-30, 33-37, 40-44, 3.1 mg/kg
[16] = Colo-205, D19-23, 26-30, 33-37, 40-44, 6.3 mg/kg
[17] = Colo-205, D19-23, 26-30, 33-37, 40-44, 12.5 mg/kg
[18] = Colo-205, D19-23, 26-30, 33-37, 40-44, 25 mg/kg
[19] = Colo-205 colon, oral 25 mg/kg once a day for 14 days

O=C(NOC[C@H](O)CO)c1ccc(F)c(F)c1Nc1ccc(I)cc1F [Compound 1, N-[(R)-2,3-dihydroxy-propoxy]-3,4-difluoro-2-(2-fluoro-4-iodo-phenylamino)-benzamide]
CR (complete response) [1, 7]: 0/6
Net Log10 kill [1, 7]: 0.1
Nonspecific Deaths [1, 7]: 0/6
PR (partial response) [1, 7]: 0/6
T − C [1, 7]: 29.5 days
Tumor Free [1, 7]: 0/6
CR (complete response) [1, 8]: 0/6
Net Log10 kill [1, 8]: 0.6
Nonspecific Deaths [1, 8]: 0/6
PR (partial response) [1, 8]: 0/6
T − C [1, 8]: 37.7 days
Tumor Free [1, 8]: 0/6
CR (complete response) [1, 9]: 1/6
Net Log10 kill [1, 9]: 0.8
Nonspecific Deaths [1, 9]: 0/6
PR (partial response) [1, 9]: 2/6
T − C [1, 9]: 41.5 days
Tumor Free [1, 9]: 0/6
CR (complete response) [1, 10]: 2/5
Net Log10 kill [1, 10]: 0.7
Nonspecific Deaths [1, 10]: 1/6^h
PR (partial response) [1, 10]: 3/5
T − C [1, 10]: 39.9 days
Tumor Free [1, 10]: 0/5
CR (complete response) [1, 11]: 0/6
Net Log10 kill [1, 11]: −0.8
Nonspecific Deaths [1, 11]: 0/6
PR (partial response) [1, 11]: 0/6
T − C [1, 11]: 13.1 days
Tumor Free [1, 11]: 0/6
CR (complete response) [1, 12]: 0/6
Net Log10 kill [1, 12]: −0.6
Nonspecific Deaths [1, 12]: 0/6
PR (partial response) [1, 12]: 0/6
T − C [1, 12]: 17.0 days
Tumor Free [1, 12]: 0/6
CR (complete response) [1, 13]: 1/6
Net Log10 kill [1, 13]: 0.4
Nonspecific Deaths [1, 13]: 0/6
PR (partial response) [1, 13]: 1/6
T − C [1, 13]: 35.4 days
Tumor Free [1, 13]: 0/6
Net Log10 kill ([1]; Colo-205, D19, 26, 33, 40, 47, 300 mg/kg): Toxic
CR (complete response) [1, 14]: 2/3
Nonspecific Deaths [1, 14]: 3/6^i Toxic
PR (partial response) [1, 14]: 1/3 Toxic
T − C [1, 14]: 60.3 Toxic days
Tumor Free [1, 14]: 1/3 Toxic
CR (complete response) [1, 15]: 0/6
Net Log10 kill [1, 15]: 0.7
Nonspecific Deaths [1, 15]: 0/6
PR (partial response) [1, 15]: 2/6
T − C [1, 15]: 37.8 days
Tumor Free [1, 15]: 0/6
CR (complete response) [1, 16]: 1/6
Net Log10 kill [1, 16]: 1.1
Nonspecific Deaths [1, 16]: 0/6
PR (partial response) [1, 16]: 4/6
T − C [1, 16]: 45.1 days
Tumor Free [1, 16]: 0/6
CR (complete response) [1, 17]: 1/6
Net Log10 kill [1, 17]: 1.1
Nonspecific Deaths [1, 17]: 0/6
PR (partial response) [1, 17]: 4/6
T − C [1, 17]: 45.9 days
Tumor Free [1, 17]: 0/6
CR (complete response) [1, 18]: 6/6
Net Log10 kill [1, 18]: 1.8
Nonspecific Deaths [1, 18]: 0/6
PR (partial response) [1, 18]: 0/6
T − C [1, 18]: 59.3 days
Tumor Free [1, 18]: 2/6
CR (complete response) ([1]; Colo-205, D19-46, 3.1 mg/kg): 0/6
Net Log10 kill ([1]; Colo-205, D19-46, 3.1 mg/kg): 1.0
Nonspecific Deaths ([1]; Colo-205, D19-46, 3.1 mg/kg): 0/6
PR (partial response) ([1]; Colo-205, D19-46, 3.1 mg/kg): 5/6
T − C ([1]; Colo-205, D19-46, 3.1 mg/kg): 45.5 days
Tumor Free ([1]; Colo-205, D19-46, 3.1 mg/kg): 0/6
CR (complete response) ([1]; Colo-205, D19-46, 6.3 mg/kg): 2/6
Net Log10 kill ([1]; Colo-205, D19-46, 6.3 mg/kg): 1.1
Nonspecific Deaths ([1]; Colo-205, D19-46, 6.3 mg/kg): 0/6
PR (partial response) ([1]; Colo-205, D19-46, 6.3 mg/kg): 4/6
T − C ([1]; Colo-205, D19-46, 6.3 mg/kg): 46.7 days
Tumor Free ([1]; Colo-205, D19-46, 6.3 mg/kg): 0/6
CR (complete response) ([1]; Colo-205, D19-46, 12.5 mg/kg): 6/6
Net Log10 kill ([1]; Colo-205, D19-46, 12.5 mg/kg): 2.3
Nonspecific Deaths ([1]; Colo-205, D19-46, 12.5 mg/kg): 0/6
PR (partial response) ([1]; Colo-205, D19-46, 12.5 mg/kg): 0/6
T − C ([1]; Colo-205, D19-46, 12.5 mg/kg): 70.1 days
Tumor Free ([1]; Colo-205, D19-46, 12.5 mg/kg): 0/6
CR (complete response) ([1]; Colo-205, D19-46, 25 mg/kg): 5/6
Net Log10 kill ([1]; Colo-205, D19-46, 25 mg/kg): 2.0
Nonspecific Deaths ([1]; Colo-205, D19-46, 25 mg/kg): 0/6
PR (partial response) ([1]; Colo-205, D19-46, 25 mg/kg): 1/6
T − C ([1]; Colo-205, D19-46, 25 mg/kg): 63.9 days
Tumor Free ([1]; Colo-205, D19-46, 25 mg/kg): 1/6
CR (complete responder) [1, 19]: 4/10
PR (partial responder) [1, 19]: 5/10
T − C [1, 19]: 10.8 days
Tumor Free [1, 19]: 3/10
CR (complete responder) [2]: 2/10
PR (partial responder) [2]: 8/10
T − C [2]: 20.6 days
Tumor Free [2]: 0/10
CR (complete responder) [3]: 0/10
PR (partial responder) [3]: 0/10
Tumor Free [3]: 0/10
AUC(0-t) ([4]; read-out: lowest plasma AUC(0-24) associated with meaningful in vivo antitumor efficacy): 1180 to 1880 ng·h/mL
Cmax ([4]; read-out: lowest plasma Cmax associated with meaningful in vivo antitumor efficacy): 260 to 428 ng/mL
% ROI Monkey [5]: 71.38%
% ROI Rat [6]: 52.30%
half-life (clinical): 5 to 14 h
Cmax (clinical; 1 mg): 41.1 ng/mL
Tmax (clinical; 1 mg): 1 h
half-life (clinical; 1 mg): 13.9 h
Cmax (clinical; 2 mg): 152 ng/mL
Tmax (clinical; 2 mg): 1 h
AUC(0-t) (clinical; 4 mg): 1580 ng·h/mL
Cmax (clinical; 4 mg): 208 ng/mL
Tmax (clinical; 4 mg): 1 h
concentration at 21 day (clinical; 4 mg): 82 ng/mL
half-life (clinical; 4 mg): 7.6 h
Cmax (clinical; 15 mg): 706 ng/mL
Tmax (clinical; 15 mg): 1 h
half-life (clinical; 15 mg): 12.6 h
AUC(0-t) (clinical; 20 mg): 6990 ng·h/mL
Cmax (clinical; 20 mg): 766 ng/mL
Tmax (clinical; 20 mg): 2 h
concentration at 21 day (clinical; 20 mg): 440 ng/mL
half-life (clinical; 20 mg): 8.3 h
AUC(0-t) (clinical; 30 mg): 12500 ng·h/mL
Cmax (clinical; 30 mg): 1640 ng/mL
Tmax (clinical; 30 mg): 2 h
concentration at 21 day (clinical; 30 mg): 500 ng/mL
half-life (clinical; 30 mg): 4.8 h

— patent US20060154990A1, “Use of MEK inhibitors in treating abnormal cell growth” (AGOURON PHARMACEUTICALS, INC., priority 2004, published 2006)
